Measurements: patent US20240398805A1, “QUINAZOLINE DERIVED COMPOUNDS AS EGFR INHIBITORS AND THEIR USES THEREOF” (ACCUTAR BIOTECHNOLOGY INC., priority 2021, published 2024)

Experiments:
Type in all cases: cell-based
[1] = tested on: HCC827-ASV cells (human EGFR exon 20 insertion mutant A769_D770insASV); test: Cell growth inhibition (CellTiter-Glo, 3 days) in HCC827-ASV; conditions: 72 h, 3 days after administration
Summary of the method: (§1)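 Growth inhibition used a CellTiter-Glo luminescence read-out after 3 days of compound exposure at various concentrations. Cells were plated the day before at 5000/well in RPMI plus 10% FBS. The lines are HCC827 transduced by lentivirus with codon-optimized EGFR ASV or ERBB2 YVMA exon 20 insertions.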

[2] = tested on: HCC827-YVMA cells (human ERBB2 exon20 insertion mutant A775_G776ins YVMA); test: Cell growth inhibition (CellTiter-Glo, 3 days) in HCC827-YVMA; conditions: 72 h, 3 days after administration
Summary of the method: as §1

[3] = tested on: HCC827-SVD cells (human EGFR exon 20 insertion mutant D770_N771 insSVD); test: Cell growth inhibition (CellTiter-Glo, 3 days) in HCC827-SVD; conditions: 72 h, 3 days after administration
Summary of the method: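 HCC827 cells carrying lentiviral codon-optimized EGFR D770_N771 insSVD, with endogenous EGFR knocked out by CRISPR (single clone), seeded at 5000 cells/well in RPMI with 10% FBS. Viability read by CellTiter-Glo luminescence.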

HCC827 cells = test: Cell growth inhibition (CellTiter-Glo, 3 days) in HCC827; conditions: Homo sapiens, 72 h, 3 days after administration
Summary of the method: (§2)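 Growth inhibition was scored by CellTiter-Glo luminescence after 3-day compound exposure at various concentrations. Cells were plated at 5000/well the day before treatment: A431 in DMEM and HCC827 in RPMI, each with 10% FBS.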

A431 cells = test: Cell growth inhibition (CellTiter-Glo, 3 days) in A431; conditions: Homo sapiens, A-431, 72 h, 3 days after administration
Summary of the method: as §2

| Compound | GI50 [1] [nM] | GI50 [2] [nM] | GI50 [3] [nM] | GI50 (HCC827 cells) [nM] | GI50 (A431 cells) [nM] |
| --- | --- | --- | --- | --- | --- |
| C=CC(=O)N1CCC(Nc2cc3c(Nc4ccc(Oc5nc(-c6ccc(OC)nc6)cs5)cc4F)ncnc3cc2OC)CC1 [Example 55, 1-(4-((4-((2-fluoro-4-((4-(6-methoxypyridin-3-yl)thiazol-2-yl)oxy)phenyl)amino)-7-methoxyquinazolin-6-yl)amino)piperidin-1-yl)prop-2-en-1-one] | < 30 | < 30 | < 30 | < 30 | 100 to 300 |
| C=CC(=O)N1CCC(Nc2cc3c(Nc4ccc(Oc5nc(-c6ccc(OC)nn6)cs5)cc4F)ncnc3cc2OC)CC1 [Example 56, 1-(4-((4-((2-fluoro-4-((4-(6-methoxypyridazin-3-yl)thiazol-2-yl)oxy)phenyl)amino)-7-methoxyquinazolin-6-yl)amino)piperidin-1-yl)prop-2-en-1-one] | < 30 | < 30 | < 30 | 30 to 60 | < 30 |
| C=CC(=O)N1CCC(Nc2cc3c(Nc4ccc(Oc5ccn(-c6cccc(OC)n6)n5)cc4F)ncnc3cc2OC)CC1 [Example 58, 1-(4-((4-((2-fluoro-4-((1-(6-methoxypyridin-2-yl)-1H-pyrazol-3-yl)oxy)phenyl)amino)-7-methoxyquinazolin-6-yl)amino)piperidin-1-yl)prop-2-en-1-one] | 60 to 100 | 60 to 100 | 60 to 100 | 60 to 100 | 300 to 600 |
| C=CC(=O)N1CCC(Nc2cc3c(Nc4ccc(Oc5ccn(-c6ccc(OC)cn6)n5)cc4F)ncnc3cc2OC)CC1 [Example 59, 1-(4-((4-((2-fluoro-4-((1-(5-methoxypyridin-2-yl)-1H-pyrazol-3-yl)oxy)phenyl)amino)-7-methoxyquinazolin-6-yl)amino)piperidin-1-yl)prop-2-en-1-one] | 30 to 60 | 30 to 60 | 60 to 100 | 60 to 100 | 100 to 300 |
| C=CC(=O)N1CCC(Nc2cc3c(Nc4ccc(Oc5ccn(-c6cnc(C)c(F)c6)n5)c(F)c4)ncnc3cc2OC)CC1 [Example 86, 1-(4-((4-((3-fluoro-4-((1-(5-fluoro-6-methylpyridin-3-yl)-1H-pyrazol-3-yl)oxy)phenyl)amino)-7-methoxyquinazolin-6-yl)amino)piperidin-1-yl)prop-2-en-1-one] | 60 to 100 | 30 to 60 | 30 to 60 | 30 to 60 | 60 to 100 |
| C=CC(=O)N1CCC(Nc2cc3c(Nc4ccc(Oc5ncc(-c6cnc(C)c(F)c6)s5)cc4F)ncnc3cc2OC)CC1 [Example 88, 1-(4-((4-((2-fluoro-4-((5-(5-fluoro-6-methylpyridin-3-yl)thiazol-2-yl)oxy)phenyl)amino)-7-methoxyquinazolin-6-yl)amino)piperidin-1-yl)prop-2-en-1-one] | 60 to 100 | 30 to 60 | 100 to 300 | 30 to 60 | ≥ 1000 |
| C=CC(=O)N1CCC(Nc2cc3c(Nc4ccc(Oc5ccn(-c6ccc(C)nc6F)n5)cc4F)ncnc3cc2OC)CC1 [Example 89, 1-(4-((4-((2-fluoro-4-((1-(2-fluoro-6-methylpyridin-3-yl)-1H-pyrazol-3-yl)oxy)phenyl)amino)-7-methoxyquinazolin-6-yl)amino)piperidin-1-yl)prop-2-en-1-one] | < 30 | < 30 | < 30 | 30 to 60 | 600 to 1000 |
| C=CC(=O)N1CCC(Nc2cc3c(Nc4ccc(Oc5ccn(-c6cnc(OC)c(F)c6)n5)cc4F)ncnc3cc2OC)CC1 [Example 90, 1-(4-((4-((2-fluoro-4-((1-(5-fluoro-6-methoxypyridin-3-yl)-1H-pyrazol-3-yl)oxy)phenyl)amino)-7-methoxyquinazolin-6-yl)amino)piperidin-1-yl)prop-2-en-1-one] | 100 to 300 | 60 to 100 | 60 to 100 | 60 to 100 | 100 to 300 |
| C=CC(=O)N1CCC(Nc2cc3c(Nc4ccc(Oc5ccn(-c6cnc7ccccc7c6)n5)cc4F)ncnc3cc2OC)CC1 [Example 91, 1-(4-((4-((2-fluoro-4-((1-(quinolin-3-yl)-1H-pyrazol-3-yl)oxy)phenyl)amino)-7-methoxyquinazolin-6-yl)amino)piperidin-1-yl)prop-2-en-1-one] | 60 to 100 | 100 to 300 | 30 to 60 | 100 to 300 | 100 to 300 |
| C=CC(=O)N1CCC(Nc2cc3c(Nc4ccc(Oc5ccn(-c6cnc(C)nc6)n5)cc4F)ncnc3cc2OC)CC1 [Example 92, 1-(4-((4-((2-fluoro-4-((1-(2-methylpyrimidin-5-yl)-1H-pyrazol-3-yl)oxy)phenyl)amino)-7-methoxyquinazolin-6-yl)amino)piperidin-1-yl)prop-2-en-1-one] | < 30 | < 30 | < 30 | 60 to 100 | 100 to 300 |
| C=CC(=O)N1CCC(Nc2cc3c(Nc4ccc(Oc5ccn(-c6ccc(C)c(F)n6)n5)cc4F)ncnc3cc2OC)CC1 [Example 93, 1-(4-((4-((2-fluoro-4-((1-(6-fluoro-5-methylpyridin-2-yl)-1H-pyrazol-3-yl)oxy)phenyl)amino)-7-methoxyquinazolin-6-yl)amino)piperidin-1-yl)prop-2-en-1-one] | 30 to 60 | 30 to 60 | 60 to 100 | 60 to 100 | ≥ 1000 |
| C=CC(=O)N1CCC(Nc2cc3c(Nc4ccc(Oc5nc(-c6cnc(C)c(F)c6)cs5)cc4F)ncnc3cc2OC)CC1 [Example 94, 1-(4-((4-((2-fluoro-4-((4-(5-fluoro-6-methylpyridin-3-yl)thiazol-2-yl)oxy)phenyl)amino)-7-methoxyquinazolin-6-yl)amino)piperidin-1-yl)prop-2-en-1-one] | 30 to 60 | 30 to 60 | 100 to 300 | 30 to 60 | ≥ 1000 |
| C=CC(=O)N1CCC(Nc2cc3c(Nc4ccc(OCc5ccccn5)c(Cl)c4)ncnc3cc2OCCN2CCOCC2)CC1 [Example 95, 1-(4-((4-((3-chloro-4-(pyridin-2-ylmethoxy)phenyl)amino)-7-(2-morpholinoethoxy)quinazolin-6-yl)amino)piperidin-1-yl)prop-2-en-1-one] | < 30 | < 30 | < 30 | < 30 | 100 to 300 |
| C=CC(=O)N1CCC(Nc2cc3c(Nc4ccc(OCc5ccccn5)c(Cl)c4)ncnc3cc2OCCN(C)C)CC1 [Example 96, 1-(4-((4-((3-chloro-4-(pyridin-2-ylmethoxy)phenyl)amino)-7-(2-(dimethylamino)ethoxy)quinazolin-6-yl)amino)piperidin-1-yl)prop-2-en-1-one] | 100 to 300 | 100 to 300 | 100 to 300 | 60 to 100 | 300 to 600 |
| C=CC(=O)N1CCC(Nc2cc3c(Nc4ccc(Oc5ccnc(-c6nc(C)cs6)c5)cc4F)ncnc3cc2OC)CC1 [Example 98, 1-(4-((4-((2-fluoro-4-((2-(4-methylthiazol-2-yl)pyridin-4-yl)oxy)phenyl)amino)-7-methoxyquinazolin-6-yl)amino)piperidin-1-yl)prop-2-en-1-one] | < 30 | < 30 | < 30 | 60 to 100 | 100 to 300 |
| C=CC(=O)N1CCC(Nc2cc3c(Nc4ccc(Oc5ccnc(-c6ncc(C)s6)c5)cc4F)ncnc3cc2OC)CC1 [Example 99, 1-(4-((4-((2-fluoro-4-((2-(5-methylthiazol-2-yl)pyridin-4-yl)oxy)phenyl)amino)-7-methoxyquinazolin-6-yl)amino)piperidin-1-yl)prop-2-en-1-one] | 30 to 60 | 30 to 60 | 60 to 100 | 60 to 100 | 600 to 1000 |
| C=CC(=O)N1CCC(Nc2cc3c(Nc4ccc(Oc5ccnc(N6CCCC6)c5)cc4F)ncnc3cc2OC)CC1 [Example 102, 1-(4-((4-((2-fluoro-4-((2-(pyrrolidin-1-yl)pyridin-4-yl)oxy)phenyl)amino)-7-methoxyquinazolin-6-yl)amino)piperidin-1-yl)prop-2-en-1-one] | 100 to 300 | 100 to 300 | 60 to 100 | 100 to 300 | 100 to 300 |
| C=CC(=O)N1CCC(Nc2cc3c(Nc4ccc(Oc5ccnc(N(C)C)c5)cc4F)ncnc3cc2OC)CC1 [Example 103, 1-(4-((4-((4-((2-(dimethylamino)pyridin-4-yl)oxy)-2-fluorophenyl)amino)-7-methoxyquinazolin-6-yl)amino)piperidin-1-yl)prop-2-en-1-one] | < 30 | < 30 | < 30 | 30 to 60 | 100 to 300 |
| C=CC(=O)N1CCC(Nc2cc3c(Nc4ccc(Oc5ccnc(N6CCC(OC)CC6)c5)cc4F)ncnc3cc2OC)CC1 [Example 104, 1-(4-((4-((2-fluoro-4-((2-(4-methoxypiperidin-1-yl)pyridin-4-yl)oxy)phenyl)amino)-7-methoxyquinazolin-6-yl)amino)piperidin-1-yl)prop-2-en-1-one] | < 30 | < 30 | < 30 | 100 to 300 | ≥ 1000 |
